Source: ChEMBL document CHEMBL4811240, “Discovery of N-substituted sulfamoylbenzamide derivatives as novel inhibitors of STAT3 signaling pathway based on Niclosamide” (Eur J Med Chem, 2021)
The source made the active and inactive calls. The rule behind the calls is not given here.

Assays:
[1] = Lipophilicity, log P of the compound; type: physicochemical; conditions: octanol/water
SW480 [2] = assay: Antiproliferative activity against human SW480 cells assessed as inhibition of cell viability after 48 hrs by MTT assay; type: functional, cell-based; conditions: SW480, 48 h
HCT-116 [3] = assay: Antiproliferative activity against human HCT116 cells assessed as inhibition of cell viability at 10 uM after 48 hrs by MTT assay relative to control; type: functional
SW480 [4] = assay: Antiproliferative activity against human SW480 cells assessed as inhibition of cell viability at 10 uM after 48 hrs by MTT assay relative to control; type: functional
L3.6pl = assay: Antiproliferative activity against human L3.6 cells assessed as inhibition of cell viability at 10 uM after 48 hrs by MTT assay relative to control; type: functional
MDA-MB-231 [5] = assay: Antiproliferative activity against human MDA-MB-231 cells assessed as inhibition of cell viability at 10 uM after 48 hrs by MTT assay relative to control; type: functional
HCT-116 [6] = assay: Antiproliferative activity against human HCT-116 cells assessed as inhibition of cell viability after 48 hrs by MTT assay; type: functional, cell-based; conditions: HCT-116, 48 h
MDA-MB-231 [7] = assay: Antiproliferative activity against human MDA-MB-231 cells assessed as inhibition of cell viability after 48 hrs by MTT assay; type: functional, cell-based; conditions: MDA-MB-231, 48 h
MDA-MB-231 [8] = assay: Inhibition of human MDA-MB-231 cells migration a 1000 nM after 24 hrs by crystal violet staining based transwell migration assay; type: functional, cell-based
[9] = target: Signal transducer and activator of transcription 3 (Homo sapiens) (UniProt P40763); assay: Inhibition of STAT3 promoter activity in human MDA-MB-231 cells at 1 uM incubated for 24 hrs by dual luciferase reporter assay; type: cell-based
MDA-MB-231 [10] = assay: Induction of apoptosis in human MDA-MB-231 cells assessed as apoptotic cells at 10 uM measured after 24 hrs by annexinV-FITC/propidium iodide staining based flow cytometry analysis (reference value: 2.49%); type: functional

Sequence of Signal transducer and activator of transcription 3 (Homo sapiens) (P40763 whole entry): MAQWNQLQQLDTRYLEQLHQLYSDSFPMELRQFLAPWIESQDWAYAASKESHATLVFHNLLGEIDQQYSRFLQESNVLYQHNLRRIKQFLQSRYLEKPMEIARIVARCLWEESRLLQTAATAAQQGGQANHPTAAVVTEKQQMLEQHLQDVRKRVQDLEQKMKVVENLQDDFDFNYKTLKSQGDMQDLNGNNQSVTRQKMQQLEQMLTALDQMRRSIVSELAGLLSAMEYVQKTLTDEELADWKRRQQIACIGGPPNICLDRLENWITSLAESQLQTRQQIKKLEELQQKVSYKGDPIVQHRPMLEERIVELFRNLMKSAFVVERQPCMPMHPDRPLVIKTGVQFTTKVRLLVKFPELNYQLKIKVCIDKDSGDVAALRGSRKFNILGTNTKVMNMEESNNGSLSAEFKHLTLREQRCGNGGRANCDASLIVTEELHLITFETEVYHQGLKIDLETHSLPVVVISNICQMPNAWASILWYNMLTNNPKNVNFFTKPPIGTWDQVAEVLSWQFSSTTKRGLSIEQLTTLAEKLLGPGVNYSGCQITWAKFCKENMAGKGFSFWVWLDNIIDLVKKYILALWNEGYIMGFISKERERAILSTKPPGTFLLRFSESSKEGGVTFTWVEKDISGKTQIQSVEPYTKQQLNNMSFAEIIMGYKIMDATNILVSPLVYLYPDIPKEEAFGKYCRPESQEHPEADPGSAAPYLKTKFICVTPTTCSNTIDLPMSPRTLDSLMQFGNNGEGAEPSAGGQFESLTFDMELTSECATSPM

Row | Compound | logP [1] | IC50 (SW480 [2]) [µM] | inhibition at 10 µM (HCT-116 [3]) [%] | inhibition at 10 µM (SW480 [4]) [%] | inhibition at 10 µM (L3.6pl) [%] | inhibition at 10 µM (MDA-MB-231 [5]) [%] | IC50 (HCT-116 [6]) [µM] | IC50 (MDA-MB-231 [7]) [µM] | inhibition (MDA-MB-231 [8]) | inhibition [9] [%] | Activity (MDA-MB-231 [10]) [%]
1 | COc1cccc(CNC(=O)c2ccc(Cl)c(S(N)(=O)=O)c2)c1 | 1.34 | > 20 | 64.2 | 37.7 | 19.4 | 36.3 | 18.6 | > 20 | – | – | –
2 | NS(=O)(=O)c1cc(C(=O)Nc2ccc([N+](=O)[O-])cc2Cl)ccc1Cl | 2.73 | > 20 | 49.5 | 38.2 | 12.3 | 56.3 | 19.1 | 14.3 | – | – | –
3 | NS(=O)(=O)c1cc(C(=O)NCc2cccc(Cl)c2Cl)ccc1Cl | 2.97 | > 20 | 70.4 | 19.6 | 11.6 | 51.5 | 9.62 | > 20 | – | – | –
4 | O=C(Nc1ccc([N+](=O)[O-])cc1Cl)c1cc(Cl)ccc1O [NICLOSAMIDE] | 3.17 | – | 73.8 | 76.8 | 66.2 | 91.5 | – | 0.8 | Active | 88.2 | 19.91
5 | COc1cccc(NC(=O)c2cccc(S(N)(=O)=O)c2)c1 | 0.96 | > 20 | 51.4 | 28.3 | 15.2 | 57.6 | 11.2 | 13.6 | – | – | –
6 | COc1cc(NC(=O)c2cccc(S(N)(=O)=O)c2)c(C(=O)O)cc1OC | 0.37 | > 20 | 22.1 | 22.9 | 23.3 | 52.1 | > 20 | 17.9 | – | – | –
